Activity calls are given as the source filed them. No cut-off for these calls is given here.
Columns and labels:
[1] = target: Interleukin-2 (Homo sapiens) (UniProt P60568); assay: Induction of stability of human recombinant interleukin 2 assessed as effect on mouse CTLL-2 cell proliferation in presence of TTR measured after 48 hrs by WST-1 assay
[2] = target: Interleukin-2 (Homo sapiens) (UniProt P60568); assay: Induction of stability of human recombinant interleukin 2 assessed as mean residence time in Sprague-Dawley rat at 0.8 mg/kg, iv measured up to 24 hrs by ELISA (Rvb= 1.04+/-0.07 hrs); assay type: organism-based; settings: time hrs <=24
[3] = target: Interleukin-2 (Homo sapiens) (UniProt P60568); assay: Induction of stability of human recombinant interleukin 2 assessed as binding affinity to human TTR in human serum by measuring target occupancy at 10 uM measured every 15 mins for 6 hrs by fluorescent probe exclusion selectivity assay; assay type: cell-free
[4] = target: Interleukin-2 (Homo sapiens) (UniProt P60568); assay: Induction of stability of human recombinant interleukin 2 assessed as half life in Sprague-Dawley rat plasma at 0.8 mg/kg, iv measured up to 24 hrs by ELISA (Rvb= 1.26+/-0.18 hrs); assay type: organism-based; settings: time hrs <=24
[5] = target: T1, Transthyretin (Homo sapiens, UniProt P02766); assay: Binding affinity to human TTR assessed as binding constant in PBS buffer at pH 7.4 measured after 20 mins fluorescence polarization assay
[6] = target: T1, Transthyretin; assay: Binding affinity to human TTR in human serum assessed as target occupancy at 10 uM measured every 15 mins for 6 hrs by fluorescent probe exclusion selectivity assay; assay type: cell-free

Sequence of Interleukin-2 (Homo sapiens) (P60568 whole entry): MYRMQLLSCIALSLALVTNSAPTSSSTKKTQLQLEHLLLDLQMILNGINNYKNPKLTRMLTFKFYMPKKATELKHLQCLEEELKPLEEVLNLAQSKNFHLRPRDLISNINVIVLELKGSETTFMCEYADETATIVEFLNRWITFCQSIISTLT

**Q.** With Cc1n[nH]c(C)c1CCCOc1cc(OCCCc2cn(CCOCCOCCOCCOCCNC(=O)C3CCC(CN4C(=O)C=CC4=O)CC3)nn2)cc(C(=O)O)c1 (stereo unspecified) as the molecule, how does the Activity [1] read?
**A.** inactive

**Q.** What about the MRT [2] of the same molecule?
**A.** 8.76 h

**Q.** What about the Occ [3] of the same molecule?
**A.** 52.6%

**Q.** And the T1/2 [4]?
**A.** 5.22 h

**Q.** What about the Kd [5] of the same molecule?
**A.** 516 nM

**Q.** What about the Occ [6] of the same molecule?
**A.** 51.8%
